# ChEMBL document CHEMBL1145923, “Synthesis and biological evaluation of 4-arylcoumarin analogues of combretastatins” (J Med Chem, 2003)
# System: CCRF-CEM
# Assay: Inhibitory activity against CEM human leukemia cell line
# Format: functional, cell-based
smiles,measurement,value
COc1cc2oc(=O)cc(-c3ccc4c(c3)OCO4)c2c(OC)c1OC,IC50,> 50 µM
